According to patent publication US5254543A, “Sulphonylbenzyl-substituted pyridones which are angiotension II receptor antagonists” (Bayer Aktiengesellschaft, priority 1992, dated 1993):

Tested on: angiotensin II-induced contraction of isolated rabbit aorta rings
Assay: Inhibition of agonist-induced contraction, angiotensin II: inhibition of vascular contraction in isolated rabbit aorta rings in vitro
Settings: based on the 3rd = submaximal agonist concentration, read-out: IC50 against contractions induced by AII
Protocol: Rabbits of both sexes are stunned by a blow to the neck and bled out, or in some cases anesthetised with Nembutal (about 60-80 mg/kg i.v.) and sacrificed by opening the thorax. The thorax aorta is taken out, freed from adhering connective tissue, divided into 1.5 mm wide ring segments and individually transferred under an initial loading of about 3.5 g to 10 ml organ baths containing 95% O2 /5% CO2 -aerated Krebs-Henseleit nutrient solution temperature-controlled at 37° C. of the following composition: 119 mmol/l of NaCl; 2.5 mmol/l of CaCl2 ×2 H2 O; 1.2 mmol/l of KH2 PO4; 10 mmol/l of glucose; 4.8 mmol/l of KCl; 1.4 mmol/l of MgSO4 ×7 H2 O and 25 mmol/l of NaHCO3.
The contractions are measured isometrically by Statham UC2 cells by means of bridge amplifiers (ifd Mulheim or DSM Aalen) and digitalised and analysed by means of A/D convertors (System 570, Keithley Munich). Agonist dose response curves (DRC) were plotted hourly. With each DRC, 3 or 4 individual concentrations are applied to the baths at an interval of 4 min. […]
The height of the 3rd DRC in the normal case is used as a reference quantity for the evaluation of the test substance to be investigated in further passages, which is applied to the baths in the following DRCs in increasing dosage in each case at the start of the incubation time. […]

CCCCc1cc(C(=O)O)cc(=O)n1Cc1ccc(S(=O)(=O)N2CCCC2C(=O)O)cc1Cl (stereo not shown) [Example 6]
IC50: 280 nM
